The text below walks through data of patent publication US20250059184A1 (priority 2021, published 2025).

The target in experiment [1] is T1, 5-HT2A (Homo sapiens, UniProt P28223). The experiment in a line: Serotonin 5-HT2A in vitro cellular IPOne agonism assay (HTRF). It is filed as cell-based. On the set-up: host or cells: CHO-K1. The following applies: CHO-K1 cells, agonist mode. How it is done: Serotonin 5-HT2A In Vitro Cellular IPOne Agonism Assay. The 5-HT2A IPOne HTRF assay was performed at Epics Therapeutics S.A. (Belgium, FAST-0505I) using conventional methods. Briefly, CHO-K1 cells expressing human recombinant 5-HT2A receptor grown to mid-log phase in culture media without antibiotics were detached with PBS-EDTA, centrifuged, and resuspended in medium without antibiotics buffer. 20,000 cells were distributed in a 96 well plate and incubated overnight at 37° C. with 5% Co2.
For agonist testing, the medium was removed and 20 μl of assay buffer plus 20 μl of test compound or reference agonist were added in each well. The plate was incubated for 60 min. at 37° C. with 5% CO2.
(§1) After addition of the lysis buffer containing IP1-d2 and anti-IP1 cryptate detection reagents, plates were incubated 1-hour at room temperature, and fluorescence ratios were measured according to the manufacturer specification, with the HTRF kit.
For orientation: TR-FRET usually uses a lanthanide donor and a delayed reading to cut background.

The target in experiment [2] is T1, 5-HT2A. Kind of experiment: Serotonin 5-HT2A in vitro radioligand binding competition assay ([3H]-DOI). The following applies: [3H]-DOI radiotracer, membrane extracts. Also noted: purchased Epics Therapeutics S.A. (Belgium) FAST-0505B. How it is done: Serotonin 5-HT2A In Vitro Radioligand Binding Competition Assay. The 5-HT2A radioligand binding competition assay was performed at Epics Therapeutics S.A. (Belgium, FAST-0505B) using conventional methods. Briefly, competition binding was performed in duplicate in the wells of a 96 well plate (Master Block, Greiner, 786201) containing binding buffer (optimized for each receptor), membrane extracts (amount of protein/well optimized for each receptor), radiotracer [^3H]-DOI (final concentration optimized for each receptor) and test compound. Nonspecific binding was determined by co-incubation with 200-fold excess of cold competitor. The samples were incubated in a final volume of 0.1 ml at a temperature and for a duration optimized for each receptor and then filtered over filter plates. Filters were washed six times with 0.5 ml of ice-cold washing buffer (optimized for each receptor) and 50 μl of Microscint 20 (Packard) were added in each well. The plates were incubated 15 min on an orbital shaker and then counted with a TopCount™ for 1 min/well.

In experiment [3] the target is T1, 5-HT2A. The experiment in a line: Serotonin 5-HT2A in vitro cellular IPOne antagonism assay (HTRF). It is filed as cell-based. On the set-up: host or cells: CHO-K1. The following applies: CHO-K1 cells, reference agonist α-Me-5HT; read-out: 5-HT2A IPOne Antagonist Activity. How it is done:
Serotonin 5-HT2A In Vitro Cellular IPOne Antagonism Assay. The 5-HT2A IPOne HTRF assay was performed at Epics Therapeutics S.A. (Belgium, FAST-O0505) in antagonism mode using conventional methods. Briefly, CHO-K1 cells expressing human recombinant 5-HT2A receptor grown to mid-log phase in culture media without antibiotics were detached with PBS-EDTA, centrifuged, and resuspended in medium without antibiotics buffer. 20,000 cells were distributed in a 96 well plate and incubated overnight at 37° C. with 5% Co2.
For antagonist testing, a reference agonist α-Me-5HT was added and fluorescence signal monitored for several minutes, followed by addition of 20 μl of assay buffer plus 20 μl of test compound or reference antagonist ketanserin, in each well. The plate was incubated for 60 min. at 37° C. with 5% CO2.
as §1

T1 sequence (P28223 whole entry): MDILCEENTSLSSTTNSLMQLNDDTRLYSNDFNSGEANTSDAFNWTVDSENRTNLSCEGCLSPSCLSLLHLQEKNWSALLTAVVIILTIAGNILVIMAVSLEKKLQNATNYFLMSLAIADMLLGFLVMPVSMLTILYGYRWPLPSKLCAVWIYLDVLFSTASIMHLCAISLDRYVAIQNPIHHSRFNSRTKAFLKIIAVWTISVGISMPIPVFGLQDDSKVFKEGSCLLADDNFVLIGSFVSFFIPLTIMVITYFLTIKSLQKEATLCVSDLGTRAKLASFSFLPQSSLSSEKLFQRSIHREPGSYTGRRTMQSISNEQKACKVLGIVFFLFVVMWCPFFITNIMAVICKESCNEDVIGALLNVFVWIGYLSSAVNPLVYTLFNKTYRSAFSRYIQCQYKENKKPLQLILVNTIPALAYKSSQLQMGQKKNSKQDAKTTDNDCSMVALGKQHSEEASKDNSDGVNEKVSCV

`NCCc1ncc2ccccn12` [Compound 1, 2-(imidazo[1,5-a]pyridin-3-yl)ethan-1-amine] displayed a concentration giving a half-maximal response (EC50) at 5-HT2A [1] greater than 10 µM. The compound also had an IC50 at 5-HT2A [2] of 1 to 10 µM.

Regarding `CC(N)Cc1ncc2ccccn12` (stereo not drawn) [Compound 2, 1-(imidazo [1,5-a]pyridin-3-yl)propan-2-amine], the EC50 on 5-HT2A [1] fell in the range of 0.101 to 1 µM. Also, the IC50 on 5-HT2A [2] was 1 to 10 µM.

With `COc1ccn2c(CC(C)N)ncc2c1` (stereo not drawn) [Compound 3, 1-(7-methoxyimidazo[1,5-a]pyridin-3-yl)propan-2-amine], the EC50 at 5-HT2A [1] is greater than 10 µM. The IC50 on 5-HT2A [2] is 1 to 10 µM.

Regarding `CC(N)Cc1ncc2cc(F)ccn12` (stereo not drawn) [Compound 4, 1-(7-fluoroimidazo[1,5-a]pyridin-3-yl)propan-2-amine], the IC50 on 5-HT2A [3] was 1 to 10 µM; at 5-HT2A [2], 0.101 to 1 µM. Further, the concentration for a half-maximal effect (EC50) on 5-HT2A [1] was greater than 10 µM.

In turn, `Cc1nc(CC(C)N)n2ccc(F)cc12` (stereo not drawn) [Compound 5, 1-(7-fluoro-1-methylimidazo [1,5-a]pyridin-3-yl)propan-2-amine] displayed an EC50 at 5-HT2A [1] of 1 to 10 µM. For the same compound, the IC50 at 5-HT2A [2] lay in the range of 1 to 10 µM.

Turning to `CC(C)(N)Cc1ncc2ccccn12` [Compound 6, 1-(imidazo [1,5-a]pyridin-3-yl)-2-methylpropan-2-amine], the IC50 is 0.101 to 1 µM at 5-HT2A [3] and 1 to 10 µM at 5-HT2A [2]. Moreover, at 5-HT2A [1], the EC50 was greater than 10 µM.

`Cc1cccc2cnc(CC(C)N)n12` (stereo not drawn) [Compound 7, 1-(5-methylimidazo[1,5-a]pyridin-3-yl)propan-2-amine] gave an EC50 on 5-HT2A [1] of 1 to 10 µM. At 5-HT2A [2], the IC50 is 1 to 10 µM.

On to `Cc1cccn2c(CC(C)N)ncc12` (stereo not drawn) [Compound 8, 1-(8-methylimidazo[1,5-a]pyridin-3-yl)propan-2-amine], for which the IC50 on 5-HT2A [3] was greater than 10 µM; on 5-HT2A [2], 1 to 10 µM. In addition, the EC50 on 5-HT2A [1] was in the range of 1 to 10 µM.

Regarding `Cc1ccc2cnc(CC(C)N)n2c1` (stereo not drawn) [Compound 10, 1-(6-methylimidazo[1,5-a]pyridin-3-yl)propan-2-amine], the EC50 on 5-HT2A [1] fell in the range of 1 to 10 µM. The IC50 at 5-HT2A [2] lay within 1 to 10 µM.

With `Cc1nc(CC(C)N)n2ccccc12` (stereo not drawn) [Compound 11, 1-(1-methylimidazo[1,5-a]pyridin-3-yl)propan-2-amine], the EC50 at 5-HT2A [1] lay in the range of 1 to 10 µM. In addition, at 5-HT2A [2], the IC50 is 1 to 10 µM.

`COc1ccn2c(CC(C)N(C)C)ncc2c1` (stereo not drawn) [Compound 16, 1-(7-methoxyimidazo[1,5-a]pyridin-3-yl)-N,N-dimethylpropan-2-amine] had an EC50 at 5-HT2A [1] greater than 10 µM. On 5-HT2A [2], the IC50 was greater than 10 µM.

As for `Cc1nc(CC(C)N(C)C)n2ccc(F)cc12` (stereo not drawn) [Compound 18, 1-(7-fluoro-1-methylimidazo [1,5-a]pyridin-3-yl)-N,N-dimethylpropan-2-amine], the EC50 at 5-HT2A [1] is greater than 10 µM. The IC50 at 5-HT2A [2] was 1 to 10 µM.

In turn, `Cc1cccc2cnc(CC(C)N(C)C)n12` (stereo not drawn) [Compound 20, N,N-dimethyl-1-(5-methylimidazo [1,5-a]pyridin-3-yl)propan-2-amine] showed an EC50 at 5-HT2A [1] greater than 10 µM. Also, the IC50 at 5-HT2A [2] was greater than 10 µM.

The compound `Cc1cccn2c(CC(C)N(C)C)ncc12` (stereo not drawn) [Compound 21, N,N-dimethyl-1-(8-methylimidazo [1,5-a]pyridin-3-yl)propan-2-amine] came in with an EC50 at 5-HT2A [1] greater than 10 µM. The IC50 at 5-HT2A [2] lay in the range of 1 to 10 µM.

On 5-HT2A [1], `Cc1ccn2c(CC(C)N(C)C)ncc2c1` (stereo not drawn) [Compound 22, N,N-dimethyl-1-(7-methylimidazo [1,5-a]pyridin-3-yl)propan-2-amine] gave an EC50 greater than 10 µM. The IC50 on 5-HT2A [2] is greater than 10 µM.

In the case of `Cc1ccc2cnc(CC(C)N(C)C)n2c1` (stereo not drawn) [Compound 23, N,N-dimethyl-1-(6-methylimidazo [1,5-a]pyridin-3-yl)propan-2-amine], at 5-HT2A [1], the EC50 was greater than 10 µM. The compound also came in with an IC50 on 5-HT2A [2] greater than 10 µM.

At 5-HT2A [1], `Cc1nc(CC(C)N(C)C)n2ccccc12` (stereo not drawn) [Compound 24, N,N-dimethyl-1-(1-methylimidazo [1,5-a]pyridin-3-yl)propan-2-amine] displayed an EC50 greater than 10 µM. Further, the IC50 at 5-HT2A [2] was greater than 10 µM.

In turn, `CCN(CC)C(C)Cc1ncc2ccccn12` (stereo not drawn) [Compound 25, N,N-diethyl-1-(imidazo[1,5-a]pyridin-3-yl)propan-2-amine] showed an EC50 at 5-HT2A [1] greater than 10 µM. This compound yielded an IC50 on 5-HT2A [2] of 1 to 10 µM.

In turn, `CC(Cc1ncc2ccccn12)N1CCOCC1` (stereo not drawn) [Compound 28, 4-(1-(Imidazo[1,5-a]pyridin-3-yl)propan-2-yl)morpholine] showed an EC50 on 5-HT2A [1] greater than 10 µM. At 5-HT2A [2], this compound displayed an IC50 of 1 to 10 µM.

Regarding `C[C@@H](Cc1ncc2ccccn12)N(C)C` [Compound 29, (S)-1-(imidazo[1,5-a]pyridin-3-yl)-N,N-dimethylpropan-2-amine], the EC50 at 5-HT2A [1] was greater than 10 µM. The compound further returned an IC50 on 5-HT2A [2] of 1 to 10 µM.

Compound `CC(N)Cc1cnc2ccccn12` (stereo not drawn) [Compound 33, 1-(imidazo[1,2-a]pyridin-3-yl)propan-2-amine] had an EC50 on 5-HT2A [1] greater than 10 µM. Further, the IC50 at 5-HT2A [2] was greater than 10 µM.

As for `COc1ccn2c(CC(C)N)cnc2c1` (stereo not drawn) [Compound 34, 1-(7-methoxyimidazo[1,2-a]pyridin-3-yl)propan-2-amine], the EC50 on 5-HT2A [1] is greater than 10 µM. Also, the IC50 at 5-HT2A [2] is greater than 10 µM.

On 5-HT2A [1], `CC(N)Cc1cnc2cc(F)ccn12` (stereo not drawn) [Compound 35, 1-(7-Fluoroimidazo[1,2-a]pyridin-3-yl)propan-2-amine] had an EC50 greater than 10 µM. Moreover, the IC50 on 5-HT2A [2] was greater than 10 µM.

For `CC(Cc1cnc2ccccn12)N(C)C` (stereo not drawn) [Compound 36, 1-(imidazo[1,2-a]pyridin-3-yl)-N,N-dimethylpropan-2-amine], the EC50 at 5-HT2A [1] was greater than 10 µM. Besides, at 5-HT2A [2], the IC50 is greater than 10 µM.

Turning to `COc1ccn2c(CC(C)N(C)C)cnc2c1` (stereo not drawn) [Compound 37, 1-(7-Methoxyimidazo[1,2-a]pyridin-3-yl)-N,N-dimethylpropan-2-amine], at 5-HT2A [1], the EC50 was greater than 10 µM. Also, on 5-HT2A [2], the IC50 is greater than 10 µM.

Compound `CC(Cc1cnc2cc(F)ccn12)N(C)C` (stereo not drawn) [Compound 38, 1-(7-Fluoroimidazo[1,2-a]pyridin-3-yl)-N,N-dimethylpropan-2-amine] displayed an EC50 on 5-HT2A [1] greater than 10 µM. At 5-HT2A [2], the IC50 is greater than 10 µM.

At 5-HT2A [1], `NCCc1ncn2ccccc12` [Compound 39, 2-(Imidazo[1,5-a]pyridin-1-yl)ethan-1-amine] displayed an EC50 of 1 to 10 µM. Also, the IC50 on 5-HT2A [2] is 1 to 10 µM.

For `CC(N)Cc1ncn2ccccc12` (stereo not drawn) [Compound 40, 1-(imidazo[1,5-a]pyridin-1-yl)propan-2-amine], the EC50 on 5-HT2A [1] is greater than 10 µM. At 5-HT2A [2], the IC50 is 1 to 10 µM.

With `Cc1nc(CCN)c2ccccn12` [Compound 41, 2-(3-methylimidazo[1,5-a]pyridin-1-yl)ethan-1-amine], on 5-HT2A [1], the EC50 was greater than 10 µM. The IC50 at 5-HT2A [2] was greater than 10 µM.

`Cc1nc(CC(C)N)c2ccc(F)cn12` (stereo not drawn) [Compound 42, 1-(6-fluoro-3-methylimidazo[1,5-a]pyridin-1-yl)propan-2-amine] registered an EC50 on 5-HT2A [1] of 1 to 10 µM. This compound registered an IC50 at 5-HT2A [2] of 1 to 10 µM.

At 5-HT2A [1], `Cc1nc(CCN(C)C)c2ccccn12` [Compound 45, N,N-dimethyl-2-(3-methylimidazo [1,5-a]pyridin-1-yl)ethan-1-amine] had an EC50 greater than 10 µM. Also, on 5-HT2A [2], the IC50 was greater than 10 µM.

`Cc1nc(CC(C)N(C)C)c2ccc(F)cn12` (stereo not drawn) [Compound 46, 1-(6-fluoro-3-methylimidazo [1,5-a]pyridin-1-yl)-N,N-dimethylpropan-2-amine] displayed a 50% effective concentration (EC50) at 5-HT2A [1] greater than 10 µM. Besides, at 5-HT2A [2], the IC50 is 1 to 10 µM.

In the case of `NCCc1cnn2ccccc12` [Compound 47, 2-(Pyrazolo[1,5-a]pyridin-3-yl)ethan-1-amine], at 5-HT2A [1], the EC50 is greater than 10 µM. Also, the IC50 at 5-HT2A [2] was greater than 10 µM.

On 5-HT2A [1], `CC(N)Cc1cnn2ccccc12` (stereo not drawn) [Compound 48, 1-(pyrazolo[1,5-a]pyridin-3-yl)propan-2-amine] registered an EC50 of 1 to 10 µM. The IC50 on 5-HT2A [2] was greater than 10 µM.

Turning to `CN(C)CCc1cnn2ccccc12` [Compound 49, N,N-dimethyl-2-(pyrazolo[1,5-a]pyridin-3-yl)ethan-1-amine], the EC50 on 5-HT2A [1] was greater than 10 µM. Also, the IC50 on 5-HT2A [2] is greater than 10 µM.

At 5-HT2A [1], `CC(Cc1cnn2ccccc12)N(C)C` (stereo not drawn) [Compound 50, N,N-dimethyl-1-(pyrazolo[1,5-a]pyridin-3-yl)propan-2-amine] gave an EC50 greater than 10 µM. The compound further showed an IC50 on 5-HT2A [2] greater than 10 µM.

In general, EC50 refers to the concentration needed to bring the measured effect to its halfway point. A low value points to higher potency in that assay.
